Reference: patent US10463658B2, “Method of inhibiting FLT3 kinase” (AROG Pharmaceuticals, LLC, priority 2013, dated 2019)

Test system: Molm 13-RES-luc cells that expressed FLT3-ITD/D835Y
Assay: MTT assay in tandutinib-resistant Molm 13-RES-luc cells
Type: cell-based
Details: Homo sapiens, tandutinib resistant Molm 13 cells, mean of 3 studies with 6 replicates each (n=18), read-out: IC50 pFLT3 (text: cell viability, MTT assay)

IC50: 3.3 nM
SMILES: CC1(COc2ccc3c(c2)ncn3-c2ccc3cccc(N4CCC(N)CC4)c3n2)COC1 [Crenolanib, reference compound]
